In the supplement of paper PMC11061612:

Legend:
[1] = tested on: CAL-120 (Breast Carcinoma); experiment: Bliss excess, mean over the matrix (fraction); higher = more synergy
In short: (§1)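 Bliss excess equals the observed combination effect minus the expected value EA + EB − EA·EB, where EA and EB are the effects of each agent alone. Combination Emax is the second-highest inhibition within the matrix. Inhibition was scaled from CellTiter-Glo 2.0 luminescence, with 0 set by vehicle wells and 1 by blank wells, after 72 hours of two-drug dosing of cells plated in 1536-well plates.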

[2] = tested on: OPM-2 (Plasma Cell Myeloma); experiment: as above
In short: as §1

[3] = tested on: VAL (B-Cell Non-Hodgkin's Lymphoma); experiment: as above
In short: as §1

[4] = tested on: 23132-87 (Gastric Carcinoma); experiment: combination Emax (second highest fraction inhibited in the dose matrix, 72 h); higher = more inhibition; extreme values may be limits of the assay
In short: as §1

[5] = tested on: CAL-120 (Breast Carcinoma); experiment: as above
In short: as §1

[6] = tested on: COLO-680N (Esophageal Squamous Cell Carcinoma); experiment: as above
In short: as §1

[7] = tested on: HEC-1 (Endometrial Carcinoma); experiment: as above
In short: as §1

IST-MES1 (Mesothelioma) = experiment: as above
In short: as §1

[8] = tested on: KE-37 (T-Lymphoblastic Leukemia); experiment: as above
In short: as §1

[9] = tested on: LK-2 (Squamous Cell Lung Carcinoma); experiment: as above
In short: as §1

LN-229 (Glioblastoma) = experiment: as above
In short: as §1

[10] = tested on: MFE-280 (Endometrial Carcinoma); experiment: as above
In short: as §1

[11] = tested on: NCI-H2342 (Lung Adenocarcinoma); experiment: as above
In short: as §1

[12] = tested on: PANC-03-27 (Pancreatic Carcinoma); experiment: as above
In short: as §1

[13] = tested on: REH (B-Lymphoblastic Leukemia); experiment: as above
In short: as §1

[14] = tested on: RERF-LC-Sq1 (Squamous Cell Lung Carcinoma); experiment: as above
In short: as §1

SF268 (Low Grade Glioma) = experiment: as above
In short: as §1

SF539 (Glioblastoma) = experiment: as above
In short: as §1

[15] = tested on: SK-PN-DW (Other Solid Carcinomas); experiment: as above
In short: as §1

WM278 (Melanoma) = experiment: as above
In short: as §1

For `NC1(C(=O)N[C@@H](CCO)c2ccc(Cl)cc2)CCN(c2ncnc3[nH]ccc23)CC1` [Capivasertib] + CCN(CCO)CCCOc1ccc2c(Nc3cc(CC(=O)Nc4cccc(F)c4)[nH]n3)ncnc2c1 [AZD2811] (first compound max 10 µM, 7x7, partner max 1 µM), the Bliss excess [1] was 0.0165, the Bliss excess [2] was 0.0027 and the Bliss excess [3] was -0.162. For the same compound, the “combination Emax” value [4] was 0.224, the “combination Emax” value [5] was 0.49 and the “combination Emax” value [6] was 0.195. For the same compound, the “combination Emax” value [7] was 0.212, the “combination Emax” value (IST-MES1 (Mesothelioma)) was 0.322 and the “combination Emax” value [8] was 1. For the same compound, the “combination Emax” value [9] was 0.925, the “combination Emax” value (LN-229 (Glioblastoma)) was 0.211 and the “combination Emax” value [10] was 0.661. The “combination Emax” value [11] was 0.482, the “combination Emax” value [12] was 0.318 and the “combination Emax” value [13] was 0.848. The “combination Emax” value [14] was 0.892, the “combination Emax” value (SF268 (Low Grade Glioma)) was 0.416 and the “combination Emax” value (SF539 (Glioblastoma)) was 0.723. For the same compound, the “combination Emax” value [15] was 0.83 and the “combination Emax” value (WM278 (Melanoma)) was 0.431.
`Cc1c2c(nn1C)CSCc1cc(n(C)n1)CSc1cc(c3ccccc3c1)OCCCc1c(C(=O)O)n(C)c3c-2c(Cl)ccc13` [AZD5991] + C[C@@H]1COCCN1C2=NC(=NC(=C2)C3(CC3)[S@](=N)(=O)C)C4=C5C=CNC5=NC=C4 [AZD6738] (first compound max 1 µM, 7x7, partner max 10 µM) gave a Bliss excess [1] of 0.0621, a Bliss excess [2] of 0.0291 and a Bliss excess [3] of -0.0898. For the same compound, the “combination Emax” value [4] was 0.979, the “combination Emax” value [5] was 0.413 and the “combination Emax” value [6] was 0.324. For the same compound, the “combination Emax” value [7] was 0.404, the “combination Emax” value (IST-MES1 (Mesothelioma)) was 0.285 and the “combination Emax” value [8] was 1. The “combination Emax” value [9] was 0.357, the “combination Emax” value (LN-229 (Glioblastoma)) was 0.777 and the “combination Emax” value [10] was 0.384. The “combination Emax” value [11] was 0.333, the “combination Emax” value [12] was 0.819 and the “combination Emax” value [13] was 0.945. For the same compound, the “combination Emax” value [14] was 0.853, the “combination Emax” value (SF268 (Low Grade Glioma)) was 0.692 and the “combination Emax” value (SF539 (Glioblastoma)) was 0.919. The “combination Emax” value [15] was 0.947 and the “combination Emax” value (WM278 (Melanoma)) was 0.562.
In the case of `Cn1cnc2c(F)c(Nc3ccc(Br)cc3Cl)c(C(=O)NOCCO)cc21` [Selumetinib] + CC(C)n1c(=O)n(C)c2cnc3cc(F)c(-c4ccc(OCCCN5CCCCC5)nc4)cc3c21 [AZD1390] (first compound max 10 µM, 7x7, partner max 0.3 µM), the Bliss excess [1] was -0.0388, the Bliss excess [2] was -0.0153 and the Bliss excess [3] was -0.0424. The “combination Emax” value [4] was 0.0937, the “combination Emax” value [5] was 0.112 and the “combination Emax” value [6] was 0.143. For the same compound, the “combination Emax” value [7] was 0.0424, the “combination Emax” value (IST-MES1 (Mesothelioma)) was 0.183 and the “combination Emax” value [8] was 0.303. For the same compound, the “combination Emax” value [9] was 0.49, the “combination Emax” value (LN-229 (Glioblastoma)) was 0.153 and the “combination Emax” value [10] was 0.17. For the same compound, the “combination Emax” value [11] was 0.0339, the “combination Emax” value [12] was 0.42 and the “combination Emax” value [13] was 0.0781. For the same compound, the “combination Emax” value [14] was 0.402, the “combination Emax” value (SF268 (Low Grade Glioma)) was 0.139 and the “combination Emax” value (SF539 (Glioblastoma)) was 0.359. For the same compound, the “combination Emax” value [15] was 0.139 and the “combination Emax” value (WM278 (Melanoma)) was 0.841.
In the case of `CN(CCO)CC[C@H](CSc1ccccc1)Nc1ccc(S(=O)(=O)NC(=O)c2ccc(N3CCC([C@@H](O)c4ccccc4-c4ccc(Cl)cc4)CC3)cc2)cc1S(=O)(=O)C(F)(F)F` [AZD4320] + Cc1cc2ncnn2cc1Nc1ncc2c(n1)n(C1CCOCC1)c(=O)n2C [AZD7648] (first compound max 1 µM, 7x7, partner max 10 µM), the Bliss excess [1] was -0.0367, the Bliss excess [2] was 0.0418 and the Bliss excess [3] was 0.0316. For the same compound, the “combination Emax” value [4] was 0.2, the “combination Emax” value [5] was 0.748 and the “combination Emax” value [6] was 0.0933. For the same compound, the “combination Emax” value [7] was 0.337, the “combination Emax” value (IST-MES1 (Mesothelioma)) was 0.113 and the “combination Emax” value [8] was 1. For the same compound, the “combination Emax” value [9] was 0.746, the “combination Emax” value (LN-229 (Glioblastoma)) was 0.0793 and the “combination Emax” value [10] was 0.774. The “combination Emax” value [11] was 0.27, the “combination Emax” value [12] was 0.177 and the “combination Emax” value [13] was 1. For the same compound, the “combination Emax” value [14] was 0.18, the “combination Emax” value (SF268 (Low Grade Glioma)) was 0.164 and the “combination Emax” value (SF539 (Glioblastoma)) was 0.214. For the same compound, the “combination Emax” value [15] was 0.413 and the “combination Emax” value (WM278 (Melanoma)) was 0.555.
With `C[C@@H](c1ccc2nccn2c1)n1nnc2ncc(-c3cnn(C)c3)nc21` [Savolitinib] + Cc1c2c(nn1C)CSCc1cc(n(C)n1)CSc1cc(c3ccccc3c1)OCCCc1c(C(=O)O)n(C)c3c-2c(Cl)ccc13 [AZD5991] (first compound max 1 µM, 7x7, partner max 1 µM) the Bliss excess [1] was -0.0387, the Bliss excess [2] was -0.0413 and the Bliss excess [3] was -0.0491. For the same compound, the “combination Emax” value [4] was 0.179, the “combination Emax” value [5] was 0.112 and the “combination Emax” value [6] was 0.183. For the same compound, the “combination Emax” value [7] was 0.107, the “combination Emax” value (IST-MES1 (Mesothelioma)) was 0.189 and the “combination Emax” value [8] was 0.159. The “combination Emax” value [9] was 0.202, the “combination Emax” value (LN-229 (Glioblastoma)) was 0.221 and the “combination Emax” value [10] was 0.116. For the same compound, the “combination Emax” value [11] was 0.321, the “combination Emax” value [12] was 0.0558 and the “combination Emax” value [13] was 0.806. The “combination Emax” value [14] was 0.173, the “combination Emax” value (SF268 (Low Grade Glioma)) was 0.167 and the “combination Emax” value (SF539 (Glioblastoma)) was 0.21. The “combination Emax” value [15] was 0.766 and the “combination Emax” value (WM278 (Melanoma)) was 0.15.
`COc1cccc(OCCCN)c1-c1cc(Nc2cnc(C#N)cn2)n[nH]1` [Prexasertib] + CCc1c2c(nc3ccc(O)cc13)-c1cc3c(c(=O)n1C2)COC(=O)[C@]3(O)CC [SN-38] (first compound max 1 µM, 7x7, partner max 0.3 µM) was tested, and the Bliss excess [1] was 0.0574, the Bliss excess [2] was -0.0125 and the Bliss excess [3] was -0.0702. For the same compound, the “combination Emax” value [4] was 0.898, the “combination Emax” value [5] was 0.85 and the “combination Emax” value [6] was 0.685. The “combination Emax” value [7] was 0.894, the “combination Emax” value (IST-MES1 (Mesothelioma)) was 0.836 and the “combination Emax” value [8] was 1. The “combination Emax” value [9] was 0.932, the “combination Emax” value (LN-229 (Glioblastoma)) was 0.767 and the “combination Emax” value [10] was 0.936. The “combination Emax” value [11] was 0.283, the “combination Emax” value [12] was 0.954 and the “combination Emax” value [13] was 1. For the same compound, the “combination Emax” value [14] was 0.824, the “combination Emax” value (SF268 (Low Grade Glioma)) was 0.937 and the “combination Emax” value (SF539 (Glioblastoma)) was 1. For the same compound, the “combination Emax” value [15] was 0.953 and the “combination Emax” value (WM278 (Melanoma)) was 0.695.
With `COc1nnc2ccc(N3CCC(c4ccc(OCCN5CCN(C)C(=O)[C@H]5C)cc4)CC3)nn12` [AZD5153] + Cc1c2c(nn1C)CSCc1cc(n(C)n1)CSc1cc(c3ccccc3c1)OCCCc1c(C(=O)O)n(C)c3c-2c(Cl)ccc13 [AZD5991] (first compound max 1 µM, 7x7, partner max 1 µM) the Bliss excess [1] was 0.0048, the Bliss excess [2] was -0.0062 and the Bliss excess [3] was -0.112. The “combination Emax” value [4] was 0.87, the “combination Emax” value [5] was 0.403 and the “combination Emax” value [6] was 0.37. For the same compound, the “combination Emax” value [7] was 0.942, the “combination Emax” value (IST-MES1 (Mesothelioma)) was 0.96 and the “combination Emax” value [8] was 0.997. The “combination Emax” value [9] was 0.413, the “combination Emax” value (LN-229 (Glioblastoma)) was 0.629 and the “combination Emax” value [10] was 0.45. For the same compound, the “combination Emax” value [11] was 0.563, the “combination Emax” value [12] was 0.252 and the “combination Emax” value [13] was 0.965. For the same compound, the “combination Emax” value [14] was 0.602, the “combination Emax” value (SF268 (Low Grade Glioma)) was 0.569 and the “combination Emax” value (SF539 (Glioblastoma)) was 0.638. The “combination Emax” value [15] was 0.985 and the “combination Emax” value (WM278 (Melanoma)) was 0.484.
